Assay results taken from patent US4929601A, “Tripeptides useful as immunostimulants as well as in the prevention of metastases” (Ellem Industria Farmaceutica, S.p.A., priority 1987, dated 1990).

What was measured:
[1] = test system: spleen cells of normal mice; test: Induction of Thy 1.2 antigen in spleen cells of normal mice; type: cell-based
From the text: The capacity of the tripeptide Arg-Gly-Asp to induce in vitro the differentiation of T cell precursors into lymphocytes expressing T cell markers has been tested by evidencing the induction of Thy 1.2 membrane antigen.
Spleen cells of normal mice have been used as source of "null" cells.
Mice were killed by cervical dislocation.
Spleens were aseptically removed and finely minced with forceps in Hank's balanced salt solution (HBSS) (Gibco Ltd, Paisley, Scotland). A suspension of single cells was obtained through filtration on a fine mesh wire sieve. Mononuclear cells (MNC) have been isolated through differential centrifugation on Lymphoprep (Nyegaard, Oslo, Norway) with continuous density gradient for 20 minutes at 450 g.
After 3 washes in HBSS, MNC were suspended at a concentration of 5×10^6 cells/ml in 199 medium (Gibco Ltd) supplemented with 1% BSA (Cohn Fr. V. Sigma, St. Louis), L-glutamine 2 mM and 10 mcg/ml of gentamycin sulfate (Schering, Klworth, N.J., U.S.A.) (TC 199-BSA). The cells have been used when their viability was over 95% at the Trypan Blue exclusion test.
Two hundred μl of the spleen MNC suspension have been mixed with the same volume of the tripeptide opportunely diluted with TC 199-BSA medium. The control cells have only been treated with the medium TC 199-BSA. […] containing 5% CO2, then washed twice with HBSS containing 5% heat-inactivated neonatal calf serum (Gibco) (HBSSS-CS) and finally resuspended in the same medium at a concentration of 10^6 cells/ml.
The expression of Thy 1.2 antigen was analyzed by IF using and anti-Thy 1.2 monoclonal antibody conjugated with fluorescein (Bio-Yeda, supplied by Technogenetics, S. Mauro Torinese, Italy) at the concentration of 2 mcg/10^6 cells. The cells have been incubated with the antibody for 30 minutes at 4° C.
After three washes in HBSS, the cells have been resuspended in the same medium and observed with a Leitz Orthomat microscope equipped with epiillumination.
At least 300 cells have been counted in each evaluation.

[2] = test system: PHA-stimulated human T lymphocytes; test: DNA synthesis in PHA-stimulated human T lymphocytes in vitro (3H-thymidine); type: cell-based; conditions: for DNA synthesis, 3H-thymidine c.p.m. (mean): control 22642
Description: Human T lymphocytes, incubated in vitro for 72 hours in presence of 0.5% PHA and different concentrations of the tripeptides under examination, have been analyzed for DNA synthesis (cell proliferation) by means of 3H-thymidine labelling.

N=C(N)NCCC[C@H](N)C(=O)NCC(=O)N[C@@H](CC(=O)O)C(=O)O [ARG--GLY--ASP, L-Arginyl-glycyl-L-aspartic acid]
VARIATION of % THY 1.2 + cells ([1]; 0.1 μg/ml, 3 hours of incubation): +3.3
% THY 1.2 + CELLS ([1]; 0.1 μg/ml, 3 hours of incubation, control 22.0): 25.3%
VARIATION of % THY 1.2 + cells ([1]; 1 μg/ml, 3 hours of incubation): +5.1
% THY 1.2 + CELLS ([1]; 1 μg/ml, 3 hours of incubation, control 22.0): 27.1%
VARIATION of % THY 1.2 + cells ([1]; 10 μg/ml, 3 hours of incubation): +9.4
% THY 1.2 + CELLS ([1]; 10 μg/ml, 3 hours of incubation, control 22.0): 31.4%
VARIATION of % THY 1.2 + cells ([1]; 10 μg/ml, 18 hours of incubation): +9.5
% THY 1.2 + CELLS ([1]; 10 μg/ml, 18 hours of incubation, control 17.0): 26.5%
VARIATION of % THY 1.2 + cells ([1]; 100 μg/ml, 3 hours of incubation): +7.4
% THY 1.2 + CELLS ([1]; 100 μg/ml, 3 hours of incubation, control 22.0): 29.4%
VARIATION of % THY 1.2 + cells ([1]; 100 μg/ml, 18 hours of incubation): +4.7
% THY 1.2 + CELLS ([1]; 100 μg/ml, 18 hours of incubation, control 17.0): 21.7%
VARIATION of % THY 1.2 + cells ([1]; 200 μg/ml, 3 hours of incubation): +5.9
% THY 1.2 + CELLS ([1]; 200 μg/ml, 3 hours of incubation, control 22.0): 27.9%
optimum concentration for Thy 1.2 induction ([1]; in vitro): 10 µg/mL
PHA-induced human T lymphocyte proliferation (DNA synthesis) ([2]; 72 hours, 0.5% PHA): able to increase
DNA synthesis Δ % ([2]; peptide 0.0001 mcg/ml): -3%
DNA synthesis, 3H-thymidine c.p.m. (mean) ([2]; peptide 0.0001 mcg/ml, 72 hours, 0.5% PHA): 22002 c.p.m.
DNA synthesis Δ % ([2]; peptide 0.001 mcg/ml): +4%
DNA synthesis, 3H-thymidine c.p.m. (mean) ([2]; peptide 0.001 mcg/ml, 72 hours, 0.5% PHA): 23519 c.p.m.
DNA synthesis Δ % ([2]; peptide 0.01 mcg/ml): +6%
DNA synthesis, 3H-thymidine c.p.m. (mean) ([2]; peptide 0.01 mcg/ml, 72 hours, 0.5% PHA): 24034 c.p.m.
DNA synthesis Δ % ([2]; peptide 0.1 mcg/ml): +17%
DNA synthesis, 3H-thymidine c.p.m. (mean) ([2]; peptide 0.1 mcg/ml, 72 hours, 0.5% PHA): 25814 c.p.m.
DNA synthesis Δ % ([2]; peptide 1 mcg/ml): +11%
DNA synthesis, 3H-thymidine c.p.m. (mean) ([2]; peptide 1 mcg/ml, 72 hours, 0.5% PHA): 25163 c.p.m.
DNA synthesis Δ % ([2]; peptide 10 mcg/ml): +6%
DNA synthesis, 3H-thymidine c.p.m. (mean) ([2]; peptide 10 mcg/ml, 72 hours, 0.5% PHA): 24111 c.p.m.
